Data on 24 compounds can be found in patent US8487103B2 (Roche Palo Alto LLC, priority 2009, dated 2013).

Counter-ions that a name gives are not always drawn.

Series [1] deals with T1, HCV polymerase (NS5B570n-Con1) (Hepatitis C virus genotype 1b, UniProt Q9WMX2).
T1 construct: contains a 21 amino acid deletion at the C-terminus relative to the full-length HCV polymerase; 6-histidine (N); made in house; host or cells: E. coli BL21(DE) pLysS, plasmid pET 17b
As to the kind of experiment: HCV NS5B RNA Polymerase Activity. The class given is biochemical, HCV Con1 strain. The procedure:
The enzymatic activity of HCV polymerase (NS5B570n-Con1) was measured as the incorporation of radiolabeled nucleotide monophosphates into acid insoluble RNA products. Unincorporated radiolabeled substrate was removed by filtration and scintillant was added to the washed and dried filter plate containing radiolabeled RNA product. The amount of RNA product generated by NS5B570-Con1 at the end of the reaction was directly proportional to the amount of light emitted by the scintillant.
The N-terminal 6-histidine tagged HCV polymerase, derived from HCV Con1 strain, genotype 1b (NS5B570n-Con1) contains a 21 amino acid deletion at the C-terminus relative to the full-length HCV polymerase and was purified from E. coli strain BL21(DE) pLysS. The construct, containing the coding sequence of HCV NS5B Con1 (GenBank accession number AJ242654) was inserted into the plasmid construct pET 17b, downstream of a T7 promoter expression cassette and transformed into E. coli. A single colony was grown overnight as a starter culture and later used inoculate 10 L of LB media supplemented with 100 μg/mL ampicillin at 37° C. Protein expression was induced by the addition of 0.25 mM isopropyl-β-D-thiogalactopyranoside (IPTG) when optical density at […] of the culture was between 0.6 and 0.8 and cells were harvested after 16 to 18 h at 30° C. NS5B570n-Con1 was purified to homogeneity using a three-step protocol including subsequent column chromatography on Ni-NTA, SP-Sepharose HP and Superdex 75 resins.
Each 50 μL enzymatic reaction contained 20 nM RNA template derived from the complementary sequence of the Internal Ribosome Entry Site (cIRES), 20 nM NS5B570n-Con1 enzyme, 0.5 μCi of tritiated UTP (Perkin Elmer catalog no. TRK-412; specific activity: 30 to 60 Ci/mmol; stock solution concentration from 7.5×10^−5 M to 20.6×10^−6 M), 1 μM each ATP, CTP, and GTP, 40 mM Tris-HCl pH 8.0, 40 mM NaCl, 4 mM DTT (dithiothreitol), 4 mM MgCl2, and 5 μl of compound serial diluted in DMSO. Reaction mixtures were assembled in 96-well filter plates (cat #MADVN0B, Millipore Co.) and incubated for 2 h at 30° C. Reactions were stopped by addition of 10% final (v/v) trichloroacetic acid and incubated for 40 min at 4° C. Reactions were filtered, washed with 8 reaction volumes of 10% (v/v) trichloroacetic acetic acid, 4 reaction volumes of 70% (v/v) ethanol, air dried, and 25 μl of scintillant (Microscint 20, Perkin-Elmer) was added to each reaction well.
The amount of light emitted from the scintillant was converted to counts per minute (CPM) on a Topcount® plate reader (Perkin-Elmer, Energy Range: Low, Efficiency Mode Normal, Count Time: 1 min, Background Subtract: none, Cross talk reduction: Off).
Data was analyzed in Excel® (Microsoft) and ActivityBase® (Idbs®). The reaction in the absence of enzyme was used to determine the background signal, which was subtracted from the enzymatic reactions. Positive control reactions were performed in the absence of compound, from which the background corrected activity was set as 100% polymerase activity. All data was expressed as a percentage of the positive control. The compound concentration at which the enzyme-catalyzed rate of RNA synthesis was reduced by 50% (IC50) was calculated by fitting equation (i) to the data where“Y”
[formula] corresponds to the relative enzyme activity (in %), “% Min” is the residual relative activity at saturating compound concentration, “% Max” is the relative maximum enzymatic activity, “X” corresponds to the compound concentration, and “S” is the Hill coefficient (or slope).

Series [2] relates to HCV replicon cells (2209-23), genotype 1b replicon. Put plainly: HCV Replicon Assay (Renilla luciferase reporter). The class given is cell-based, HCV genotype 1b. The following applies: Hepatitis C virus, 72 h; cell line 2209-23, luciferase activity after three days. For orientation: A replicon is a self-replicating genome or part of one, used to study replication in cells.

With `CC(C)(C)c1cc(-c2ccc[nH]c2=O)c2ncc(-c3ccc(NS(C)(=O)=O)cc3Cl)nc2c1` [Compound I-7], the melting point (commonly the temperature of the solid-liquid transition) is 275 to 278 °C. Further, the IC50 (commonly the concentration needed to halve the response being measured) in series [1] turned out to be 3 nM.

Take `CC(C)(C)c1cc(-c2cc(F)c[nH]c2=O)c2ncc(-c3ccc(NS(C)(=O)=O)cc3)nc2c1` [Compound I-2, N-{4-[7-tert-Butyl-5-(5-fluoro-2-oxo-1,2-dihydro-pyridin-3-yl)-quinoxalin-2-yl]-phenyl}-methanesulfonamide]: the melting point is > 300 °C. For the same compound, in series [1], inhibition was half-maximal at 31 nM (IC50).

In turn, `CC(C)(C)c1cc(-c2cc(F)c[nH]c2=O)c2ncc(-c3ccc(NS(C)(=O)=O)cc3)cc2c1` [Compound I-12] showed a melting point of 208 to 210 °C.

For the compound `COc1c(C(C)(C)C)cc(-c2ccc(CO)[nH]c2=O)c2ncc(-c3ccc(NS(C)(=O)=O)cc3)cc12` [Compound I-41, N-{4-[6-tert-Butyl-8-(6-hydroxymethyl-2-oxo-1,2-dihydro-pyridin-3-yl)-5-methoxy-quinolin-3-yl]-phenyl}-methanesulfonamide], the melting point was 293 to 295 °C. The same compound returned an IC50 in series [1] of 0.2 nM.

The compound `CC(C)(C)c1cc(-c2cc(F)c[nH]c2=O)c2ncc(N3CCC(NS(C)(=O)=O)CC3)nc2c1` [Compound I-5] displayed a melting point of 224 to 226 °C. In series [1], this compound had a concentration for half-maximal inhibition (IC50) of 817 nM.

In turn, `COc1ccc(-c2cc(C(C)(C)C)cc3cc(N4CC[C@H](CNS(C)(=O)=O)C4)cnc23)c(=O)[nH]1` [Compound I-60, N-{(S)-1-[6-tert-Butyl-8-(6-methoxy-2-oxo-1,2-dihydro-pyridin-3-yl)-quinolin-3-yl]-pyrrolidin-3-ylmethyl}-methanesulfonamide] came in with an IC50 in series [2] of 81.8 nM.

`CC(C)(C)c1cc(-c2ccc[nH]c2=O)c2ncc(-c3ccc(NS(C)(=O)=O)cc3)nc2c1` [Compound I-6, N-{4-[7-tert-Butyl-5-(2-oxo-1,2-dihydro-pyridin-3-yl)-quinoxalin-2-yl]-phenyl}-methanesulfonamide] had a melting point of 260 to 263 °C. In series [1], this compound showed an IC50 of 1 nM.

The compound `COc1nc2c(-c3ccc[nH]c3=O)cc(C(C)(C)C)cc2cc1-c1ccc(NS(C)(=O)=O)cc1` [Compound I-1, N-{4-[6-tert-Butyl-2-methoxy-8-(2-oxo-1,2-dihydro-pyridin-3-yl)-quinolin-3-yl]-phenyl}-methanesulfonamide] yielded a melting point of 274 to 276 °C. In series [1], this compound showed an IC50 of 8 nM.

Compound `COc1c(C(C)(C)C)cc(-c2ccc[nH]c2=O)c2ncc(N3CC(CNS(C)(=O)=O)C3)cc12` [Compound I-19, N-{1-[6-tert-Butyl-5-methoxy-8-(2-oxo-1,2-dihydro-pyridin-3-yl)-quinolin-3-yl]-azetidin-3-ylmethyl}-methanesulfonamide] came in with a melting point of 177 to 180 °C. The compound further yielded an IC50 in series [1] of 3 nM.

Compound `CC(C)(C)c1cc(-c2cc(F)c[nH]c2=O)c2ncc(N3CCC(NS(C)(=O)=O)CC3)cc2c1` [Compound I-13, N-{1-[6-tert-Butyl-8-(5-fluoro-2-oxo-1,2-dihydro-pyridin-3-yl)-quinolin-3-yl]-piperidin-4-yl}-methanesulfonamide] had a melting point of 186 to 188 °C. In addition, the IC50 in series [1] amounted to 64 nM.

In series [1], `COc1ccc(-c2cc(C(F)(F)F)c(OC)c3cc(-c4ccc(NS(C)(=O)=O)cc4)cnc23)c(=O)[nH]1` [Compound I-50] registered an IC50 of 0.6 nM.

The compound `COc1c(C(C)(C)C)cc(N2CCC(=O)NC2=O)c2ncc(-c3ccc(NS(C)(=O)=O)cc3)cc12` [Compound I-28, N-{4-[6-tert-Butyl-8-(2,4-dioxo-tetrahydro-pyrimidin-1-yl)-5-methoxy-quinolin-3-yl]-phenyl}-methanesulfonamide] displayed an IC50 in series [1] of 2 nM.

The compound `COc1c(C(C)(C)C)cc(-c2ccc[nH]c2=O)c2ncc(Br)cc12` [Compound I-16] came in with an IC50 in series [1] of 59 nM.

`COc1c(C(C)(C)C)cc(-c2ccc(C)[nH]c2=O)c2ncc(-c3ccc(NS(C)(=O)=O)cc3)cc12` [Compound I-24]: inhibition in series [1] was half-maximal at 1 nM (IC50).

On to `COc1c(C(F)(F)F)cc(-c2ccc(C)[nH]c2=O)c2ncc(-c3ccc(NS(C)(=O)=O)cc3)cc12` [Compound I-49, N-{4-[5-Methoxy-8-(6-methyl-2-oxo-1,2-dihydro-pyridin-3-yl)-6-trifluoromethyl-quinolin-3-yl]-phenyl}-methanesulfonamidehydrobromide], for which the IC50 in series [1] was 0.7 nM.

In turn, `COc1c(C(C)(C)C)cc(-c2cc(Cl)c(C)[nH]c2=O)c2ncc(-c3ccc(NS(C)(=O)=O)cc3)cc12` [Compound I-42, N-{4-[6-tert-Butyl-8-(5-chloro-6-methyl-2-oxo-1,2-dihydro-pyridin-3-yl)-5-methoxy-quinolin-3-yl]-phenyl}-methanesulfonamide] yielded an IC50 in series [1] of 0.6 nM.

With `COc1c(CC(F)(F)F)cc(-c2ccc(C)[nH]c2=O)c2ncc(-c3ccc(NS(C)(=O)=O)cc3)cc12` [Compound I-53, N-{4-[5-Methoxy-8-(6-methyl-2-oxo-1,2-dihydro-pyridin-3-yl)-6-(2,2,2-trifluoro-ethyl)-quinolin-3-yl]-phenyl}-methanesulfonamide hydrobomide salt], inhibition in series [1] was half-maximal at 9.6 nM (IC50).

Compound `CC(C)(C)c1cc(-c2cc(F)c[nH]c2=O)c2ncc(N3CC[C@H](CNS(C)(=O)=O)C3)nc2c1` [Compound I-4, N-{(S)-1-[7-tert-Butyl-5-(5-fluoro-2-oxo-1,2-dihydro-pyridin-3-yl)-quinoxalin-2-yl]-pyrrolidin-3-ylmethyl}-methanesulfonamide] displayed a melting point of 170 to 175 °C. Further, 191 nM corresponded to half-maximal inhibition in series [1] (IC50).

In series [1], `COc1c(C(C)(C)C)cc(-c2ccc(C)[nH]c2=O)c2ncc(N3CC[C@H](CNS(C)(=O)=O)C3)cc12` [Compound I-46] came in with an IC50 of 0.9 nM.

`Br.[2H]C([2H])([2H])C(c1cc(-c2ccc(OC)[nH]c2=O)c2ncc(-c3ccc(NS(C)(=O)=O)cc3)cc2c1OC)(C([2H])([2H])[2H])C([2H])([2H])[2H]` [Compound I-32, N-{4-[6-[1,1-di(methyl-d3)ethyl-2,2,2-d3]-5-methoxy-8-(6-methoxy-2-oxo-1,2-dihydro-pyridin-3-yl)-quinolin-3-yl]-phenyl}-methanesulfonamide]: in series [1], the half-inhibitory concentration (IC50) is 0.8 nM.

In series [1], `COc1ccc(-c2cc(C(C)(C)C)c(OC)c3cc(-c4ccc(NS(C)(=O)=O)cc4)cnc23)c(=O)[nH]1` [Compound I-34, N-{4-[6-tert-Butyl-5-methoxy-8-(6-methoxy-2-oxo-1,2-dihydro-pyridin-3-yl)-quinolin-3-yl]-phenyl}-methanesulfonamide] came in with a 50% inhibitory concentration (IC50) of 10 nM.

Regarding `COc1c(C(C)(C)C)cc(N2CCCNC2=O)c2ncc(-c3ccc(NS(C)(=O)=O)cc3)cc12` [Compound I-27, N-{4-[6-tert-Butyl-5-methoxy-8-(2-oxo-tetrahydro-pyrimidin-1-yl)-quinolin-3-yl]-phenyl}-methanesulfonamide], the IC50 in series [1] stood at 0.7 nM.

The compound `COc1c(C(C)(C)C)cc(-c2ccc(C)[nH]c2=O)c2ncc(CCCCNS(C)(=O)=O)cc12` [Compound I-44, N-{4-[6-tert-Butyl-5-methoxy-8-(6-methyl-2-oxo-1,2-dihydro-pyridin-3-yl)-quinolin-3-yl]-butyl}-methanesulfonamide] yielded an IC50 in series [1] of 12.2 nM.

For `CC(C)(C)c1cc(-c2ccc[nH]c2=O)c2ncc(N3CCC(NS(C)(=O)=O)CC3)nc2c1`, the melting point lay within 275 to 280 °C.
